Like-named read-outs stand apart in the source and are kept apart here.
Columns and labels:
[1] = target: T1, AChE from electric eel (Electrophorus electricus) (Electrophorus electricus, UniProt O42275); experiment: In vitro AChE inhibition, modified Ellman's method; format: biochemical
T1 construct: purchased Sigma, St. Louis, MO, USA
Description: (§1) The ability of all the prepared compounds to inhibit AChE from electric eel (Electrophorus electricus) and BChE from equine serum (both purchased from Sigma, St. Louis, MO, USA) was determined in vitro using a modified Ellman’s method, as described in detail elsewhere. This is a simple, rapid, and direct method to determine the SH and -S-S- group content in proteins. The enzyme activity is measured indirectly by quantifying the concentration of the 5-thio-2-nitrobenzoic acid ion formed in the reaction between the thiol reagent 5,5’-dithiobis-2nitrobenzoic acid (DTNB) and thiocholine, which is a product of acetylthiocholine hydrolysis catalyzed by cholinesterases. The effectiveness of the tested inhibitors is expressed as the IC50 values.
(§2) The enzyme activity in the final reaction mixture (2 mL) was 0.2 U/mL, the concentration of the substrate (acetylthiocholine or butyrythiocholine) was 40 µM, and the concentration of DTNB was 0.1 mM for all reactions. All reactions were carried out at 25 °C in the presence of phosphate-buffered saline (0.1 M, pH 7.4) in a glass cuvette with a 1 cm optical path. All the studied inhibitors were dissolved in DMSO (concentration 0.01 M) and then diluted in demineralized water as necessary. […] All measurements were carried out in triplicate, and the average values of the reaction rate (v0—reaction in the absence of the inhibitor, vi—reaction in the presence of the inhibitor) were used for construction of the dependence v0/vi vs. concentration of the inhibitor.

[2] = target: T2, BChE from equine serum (Equus caballus, UniProt P81908); experiment: In vitro BChE inhibition, modified Ellman's method; format: biochemical; details: for SI (index selectivity) = IC50 (AChE)/IC50 (BChE): ratio IC50 AChE/IC50 BChE
T2 construct: BChE from equine serum; purchased Sigma, St. Louis, MO, USA; host or cells: equine serum
Description: as §1, §2

[3] = Determination of lipophilicity by RP-HPLC (capacity factor k); format: physicochemical; details: C18, isocratic MeOH 72%/H2O 28%, 40 °C
Description: The lipophilicity of all the target compounds was investigated by means of RP-HPLC determination of capacity factors k with a subsequent calculation of log k. The retention times of individual compounds were determined under isocratic conditions with methanol as an organic modifier in the mobile phase using end-capped non-polar C18 stationary RP columns.
The HPLC separation system Agilent 1200 series equipped with a DAD SL (Agilent Technologies) was used. A chromatographic column Symmetry® C18 5 μm, 4.6 × 250 mm, Part No. W21751W016 (Waters Corp., Milford, MA, USA) was applied. The HPLC separation process was monitored by the ChemStation for LC 3D chromatography software (Agilent Technologies). Isocratic elution by a mixture of MeOH p.a. (72%) and H2O-HPLC Mili-Q grade (28%) as a mobile phase was used for the determination of the capacity factor k. The total flow of the column was 1.0 mL/min, injection 20 μL, column temperature 40 °C, and sample temperature 10 °C. The detection wavelength of 210 nm was chosen. A KI methanolic solution was used for the determination of the dead times (tD). Retention times (tR) were measured in minutes. The capacity factors k were calculated according to the formula k = (tR − tD)/tD, where tR is the retention time of the solute and tD is the dead time obtained using an unretained analyte. Each experiment was repeated three times.

[4] = mean ± SD, n = 3, electric eel AChE, 25 °C, pH 7.4, read-out: IC50 AChE

T2 sequence (P81908 whole entry): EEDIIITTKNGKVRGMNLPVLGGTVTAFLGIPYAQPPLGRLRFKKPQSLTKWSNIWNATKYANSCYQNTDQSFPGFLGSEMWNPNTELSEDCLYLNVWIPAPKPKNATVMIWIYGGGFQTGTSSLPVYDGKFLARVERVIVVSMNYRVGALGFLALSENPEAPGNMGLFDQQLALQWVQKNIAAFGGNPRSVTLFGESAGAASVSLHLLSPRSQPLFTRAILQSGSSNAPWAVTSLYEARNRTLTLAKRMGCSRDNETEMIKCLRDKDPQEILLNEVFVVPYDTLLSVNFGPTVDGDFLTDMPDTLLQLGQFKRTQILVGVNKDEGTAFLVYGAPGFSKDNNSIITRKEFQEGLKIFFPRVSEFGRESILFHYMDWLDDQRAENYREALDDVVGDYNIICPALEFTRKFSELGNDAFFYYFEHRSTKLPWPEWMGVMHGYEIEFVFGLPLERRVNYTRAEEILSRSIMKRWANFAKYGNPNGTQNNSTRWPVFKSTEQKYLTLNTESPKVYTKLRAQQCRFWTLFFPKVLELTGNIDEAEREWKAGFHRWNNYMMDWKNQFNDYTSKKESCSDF
T1 sequence (O42275 24-633): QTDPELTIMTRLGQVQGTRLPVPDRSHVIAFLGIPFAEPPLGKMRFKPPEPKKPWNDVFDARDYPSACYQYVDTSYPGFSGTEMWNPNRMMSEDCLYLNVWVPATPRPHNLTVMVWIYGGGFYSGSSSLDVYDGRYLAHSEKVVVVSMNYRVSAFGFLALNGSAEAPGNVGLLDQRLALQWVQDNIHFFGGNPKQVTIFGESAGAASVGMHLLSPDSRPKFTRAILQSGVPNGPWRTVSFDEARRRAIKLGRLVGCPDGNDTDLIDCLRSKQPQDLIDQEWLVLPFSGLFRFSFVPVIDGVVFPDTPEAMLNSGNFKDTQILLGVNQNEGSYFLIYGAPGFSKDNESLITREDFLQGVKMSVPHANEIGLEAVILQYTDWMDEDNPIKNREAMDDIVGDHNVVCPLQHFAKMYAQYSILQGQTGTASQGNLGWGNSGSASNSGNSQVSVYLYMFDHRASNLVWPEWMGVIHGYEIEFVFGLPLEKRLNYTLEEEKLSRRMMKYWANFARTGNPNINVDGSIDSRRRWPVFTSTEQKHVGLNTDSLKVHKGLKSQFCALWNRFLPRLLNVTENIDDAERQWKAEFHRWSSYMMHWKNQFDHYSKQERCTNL

Compound	IC50 [1] [µM]	IC50 [2] [µM]	SI (index selectivity) = IC50 (AChE)/IC50 (BChE) [2]	log k [3]	IC50 [1, 4] [µM]	IC50 ([2]; mean ± SD, n = 3, equine serum BChE, 25 °C, pH 7.4, read-out: IC50 BChE) [µM]
O=C(Nc1ccc(C(=O)Nc2ccccc2OC(F)(F)F)c(O)c1)OCc1ccccc1 [Compound 15, Benzyl(3-hydroxy-4-{[2-(trifluoromethoxy)phenyl]carbamoyl}phenyl)carbamate]	36 ± 1.48	44.3 ± 0.87	0.81	0.6227	–	–
O=C(Nc1ccc(C(=O)Nc2ccc(Cl)cc2)c(O)c1)OCc1ccccc1 [Compound 11, Benzyl{4-[(4-chlorophenyl)carbamoyl]-3-hydroxyphenyl}carbamate]	78.2 ± 1.58	139 ± 6.86	0.56	0.6399	–	–
O=C(Nc1ccc(C(=O)Nc2cccc(F)c2F)c(O)c1)OCc1ccccc1 [Compound 16, Benzyl{4-[(2,3-difluorophenyl)carbamoyl]-3-hydroxyphenyl}carbamate]	62.4 ± 1.42	200 ± 7	0.31	0.4705	–	–
O=C(Nc1ccc(C(=O)Nc2c(Br)cc(Br)cc2Br)c(O)c1)OCc1ccccc1 [Compound 32, Benzyl{3-hydroxy-4-[(2,4,6-tribromophenyl)carbamoyl]phenyl}carbamate]	65.9 ± 2.81	56 ± 0.58	1.18	0.4427	–	–
O=C(Nc1ccc(C(=O)Nc2ccccc2)c(O)c1)OCc1ccccc1 [Compound 1, Benzyl[3-hydroxy-4-(phenylcarbamoyl)phenyl]carbamate]	65.2 ± 2.24	175 ± 5.85	0.37	0.1160	–	–
COc1cccc(NC(=O)c2ccc(NC(=O)OCc3ccccc3)cc2O)c1 [Compound 3, Benzyl{3-hydroxy-4-[(3-methoxyphenyl)carbamoyl]phenyl}carbamate]	69.3 ± 2	362 ± 8.12	0.19	0.1280	–	–
O=C(Nc1ccc(C(=O)Nc2cc(Cl)cc(Cl)c2)c(O)c1)OCc1ccccc1 [Compound 25, Benzyl{4-[(3,5-dichlorophenyl)carbamoyl]-3-hydroxyphenyl}carbamate]	50.62 ± 0.38	143 ± 3.69	0.35	0.9084	–	–
O=C(Nc1ccc(C(=O)Nc2cccc(F)c2)c(O)c1)OCc1ccccc1 [Compound 7, Benzyl{4-[(3-fluorophenyl)carbamoyl]-3-hydroxyphenyl}carbamate]	66.6 ± 0.14	197.6 ± 1.36	0.34	0.2303	–	–
COc1ccc(NC(=O)c2ccc(NC(=O)OCc3ccccc3)cc2O)cc1 [Compound 4, Benzyl{3-hydroxy-4-[(4-methoxyphenyl)carbamoyl]phenyl}carbamate]	57.49 ± 0.08	154 ± 6.09	0.37	0.1176	–	–
O=C(Nc1ccc(C(=O)Nc2ccc(F)cc2F)c(O)c1)OCc1ccccc1 [Compound 17, Benzyl{4-[(2,4-difluorophenyl)carbamoyl]-3-hydroxyphenyl}carbamate]	79.2 ± 1.27	180 ± 7.04	0.44	0.1912	–	–
Cc1cccc(NC(=O)c2ccc(NC(=O)OCc3ccccc3)cc2O)c1 [Compound 5, Benzyl{3-hydroxy-4-[(3-methylphenyl)carbamoyl]phenyl}carbamate]	70.2 ± 1.7	167 ± 10.2	0.42	0.2725	–	–
O=C(Nc1ccc(C(=O)Nc2ccc(Cl)c(Cl)c2)c(O)c1)OCc1ccccc1 [Compound 24, Benzyl{4-[(3,4-dichlorophenyl)carbamoyl]-3-hydroxyphenyl}carbamate]	58 ± 5.83	185 ± 6.13	0.31	0.6664	–	–
O=C(Nc1ccc(C(=O)Nc2cccc(C(F)(F)F)c2)c(O)c1)OCc1ccccc1 [Compound 13, Benzyl(3-hydroxy-4-{[3-(trifluoromethyl)phenyl]carbamoyl}phenyl)carbamate]	70.67 ± 0.57	309 ± 8.06	0.23	0.4477	–	–
O=C(Nc1ccc(C(=O)Nc2ccccc2C(F)(F)F)c(O)c1)OCc1ccccc1 [Compound 12, Benzyl(3-hydroxy-4-{[2-(trifluoromethyl)phenyl]carbamoyl}phenyl)carbamate]	56.4 ± 1.26	33.6 ± 0.71	1.68	0.4318	–	–
O=C(Nc1ccc(C(=O)Nc2ccccc2OC(F)(F)F)c(O)c1)OCc1ccccc1	–	–	–	–	36.1	–
O=C(Nc1ccc(C(=O)O)c(O)c1)OCc1ccccc1 [CbzPAS, 4-{[(Benzyloxy)carbonyl]amino}-2-hydroxybenzoic acid, reference compound]	58.1 ± 1.04	137 ± 21.8	0.42	–	–	–
O=C(Nc1ccc(C(=O)Nc2ccc(C(F)(F)F)cc2)c(O)c1)OCc1ccccc1 [Compound 14, Benzyl(3-hydroxy-4-{[4-(trifluoromethyl)phenyl]carbamoyl}phenyl)carbamate]	71.4 ± 5.04	137 ± 21.9	0.52	0.7408	–	–
O=C(Nc1ccc(C(=O)Nc2cc(F)cc(F)c2)c(O)c1)OCc1ccccc1 [Compound 20, Benzyl{4-[(3,5-difluorophenyl)carbamoyl]-3-hydroxyphenyl}carbamate]	67.4 ± 5.24	208 ± 5.3	0.32	0.4072	–	–
O=C(Nc1ccc(C(=O)Nc2cc(Cl)ccc2Cl)c(O)c1)OCc1ccccc1 [Compound 22, Benzyl{4-[(2,5-dichlorophenyl)carbamoyl]-3-hydroxyphenyl}carbamate]	99.14 ± 0.2	141 ± 7.12	0.70	0.6138	–	–
O=C(Nc1ccc(C(=O)Nc2ccccc2F)c(O)c1)OCc1ccccc1 [Compound 6, Benzyl{4-[(2-fluorophenyl)carbamoyl]-3-hydroxyphenyl}carbamate]	50.07 ± 0.06	70.8 ± 5.61	0.71	0.3577	–	–
O=C(Nc1ccc(C(=O)Nc2cccc(Cl)c2Cl)c(O)c1)OCc1ccccc1 [Compound 21, Benzyl{4-[(2,3-dichlorophenyl)carbamoyl]-3-hydroxyphenyl}carbamate]	88.8 ± 1.42	248 ± 14.9	0.36	0.5497	–	–
O=C(Nc1ccc(C(=O)Nc2cc(F)c(F)c(F)c2)c(O)c1)OCc1ccccc1 [Compound 29, Benzyl{3-hydroxy-4-[(3,4,5-trifluorophenyl)carbamoyl]phenyl}carbamate]	62.3 ± 0.75	183.7 ± 0.75	0.34	0.5169	–	–
O=C(Nc1ccc(C(=O)Nc2c(Cl)cccc2Cl)c(O)c1)OCc1ccccc1 [Compound 23, Benzyl{4-[(2,6-dichlorophenyl)carbamoyl]-3-hydroxyphenyl}carbamate]	76.74 ± 0.74	117.6 ± 1.11	0.65	0.8125	–	–
O=C(Nc1ccc(C(=O)Nc2cc(C(F)(F)F)cc(C(F)(F)F)c2)c(O)c1)OCc1ccccc1 [Compound 27, Benzyl{4-[(3,5-di(trifluoromethyl))carbamoyl]-3-hydroxyphenyl}carbamate]	–	–	0.41	0.9667	59.4 ± 3.38	146 ± 2.65
O=C(Nc1ccc(C(=O)Nc2c(Cl)cc(Cl)cc2Cl)c(O)c1)OCc1ccccc1 [Compound 31, Benzyl{3-hydroxy-4-[(2,4,6-trichlorophenyl)carbamoyl]phenyl}carbamate]	93.1 ± 1.8	57.1 ± 1.72	1.63	0.3679	–	–
